Reference: PubChem BioAssay AID588784 (Southern Research Specialized Biocontainment Screening …, 2011)
Where “and” joins values, the source holds several entries; their conditions need not be identical. Equal entries are not always repeated. Calls of active or inactive are those of the source. The rule behind the calls is not given here.

Test system: HSV-infected cells, viral DNA qPCR Ct reduction
Assay: enhancers of HSV replication by viral DNA qPCR, confirmation, HSV replication enhancer project, cell-based (AID 588784)
Conditions: at 10 µM; stronger effect = higher value

## COc1cc(C(=O)OCCCN2CCCN(CCCOC(=O)c3cc(OC)c(OC)c(OC)c3)CC2)cc(OC)c1OC
  Ct reduction: -0.309 (inactive) and -0.64 (inactive)
